Values of other authors in patent US20100104643A1, “PHARMACEUTICAL COMPOSITIONS” (ZYSIS LIMITED, priority 2007, published 2010).

How the values were obtained:
[1] = for dose-concentration relationship: plasma concentrations
[2] = trimipramine antidepressant treatment

upper limit of the therapeutic trough plasma concentrations [2] [mg/L]	bioavailability difference between poor and ultra-fast metabolizers ([1]; CYP2D6 genotypes) [fold]	mean systemic clearances, ultrarapid metabolizers of CYP2D6 substrates versus poor metabolizers ([1]; higher in ultrarapid than in poor metabolizers) [fold]	total oral clearance, low extreme ([1]; poor metabolizer group) [L/h]	difference in total oral clearance ([1]; poor versus ultrarapid CYP2D6 metabolizers)	total oral clearance, high extreme ([1]; ultrarapid metabolizer group) [L/h]	Compound	dose-concentration relationship [1]
0.38						CNCC(C)CN1c2ccccc2CCc2ccccc21 (stereo not drawn) [desmethyltrimipramine]	deviation from linearity within the therapeutic dose range
0.24	6	2.5	3.5	about 15 fold	712.6	CC(CN(C)C)CN1c2ccccc2CCc2ccccc21 (stereo not drawn) [trimipramine, 10,11-Dihydro-5-(3-dimethylamino-2-methylpropyl)-5H-dibenz(b,f) azepine]	linear dose-concentration relationship for doses up to 150 mg
